Source: publication PMC12447631 (Environmental science & technology, 2018)

Molecular target: T1, MGS0156 (uncultured organism, UniProt A0A0G3FEJ8)
T1 sequence (A0A0G3FEJ8 75-421): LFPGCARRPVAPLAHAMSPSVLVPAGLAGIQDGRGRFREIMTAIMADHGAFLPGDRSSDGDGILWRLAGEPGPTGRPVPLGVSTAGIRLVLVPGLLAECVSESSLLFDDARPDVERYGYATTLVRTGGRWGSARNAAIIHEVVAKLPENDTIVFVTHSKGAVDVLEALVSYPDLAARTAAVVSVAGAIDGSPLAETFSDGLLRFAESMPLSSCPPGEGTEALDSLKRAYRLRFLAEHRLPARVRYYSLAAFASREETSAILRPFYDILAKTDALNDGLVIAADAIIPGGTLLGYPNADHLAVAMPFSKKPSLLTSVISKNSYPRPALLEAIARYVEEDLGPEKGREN
Test: spectrophotometric pNP ester hydrolysis
Type: biochemical
Conditions: 0.5 mM substrate, 50 mM HEPES-K pH 8.0, 30 °C

Compound: CCCCCCCC(=O)Oc1ccc([N+](=O)[O-])cc1 [pNP-octanoate]
- specific activity: MGS0156 was most active against pNP -octanoate and pNP -decanoate (C8–C10 substrates)
